In ChEMBL document CHEMBL1697723, “A predictive ligand-based Bayesian model for human drug-induced liver injury” (Drug Metab Dispos, 2010):

Tested on: Hepatotoxicity
Assay: Human drug-induced liver injury (DILI) modelling dataset from Ekins et al
Conditions: not given

Compound | Hepatotoxicity
CC[C@@]1(O)C[C@H](O[C@H]2C[C@H](N(C)C)[C@H](O[C@H]3C[C@H](O)[C@H](O[C@H]4CCC(=O)[C@H](C)O4)[C@H](C)O3)[C@H](C)O2)c2c(cc3c(c2O)C(=O)c2c(O)cccc2C3=O)[C@H]1C(=O)OC.Cl [ACLARUBICIN HYDROCHLORIDE] | DILI negative (test set)
GALLIUM NITRATE HYDRATE | DILI negative (training set)
S=C=Nc1ccc2ccccc2c1 | DILI negative (test set)
CN1CCN2c3ccccc3Cc3ccccc3C2C1 (centres undefined) [MIANSERIN] | DILI positive (test set)
Fc1ccc([C@@H]2CCNC[C@H]2COc2ccc3c(c2)OCO3)cc1 [PAROXETINE] | DILI negative (training set)
Cc1cc(NC(=O)C2=C(O)c3ccccc3S(=O)(=O)N2C)no1 [ISOXICAM] | DILI negative (test set)
CN1CCC[C@@H]1CCO[C@](C)(c1ccccc1)c1ccc(Cl)cc1.O=C(O)/C=C/C(=O)O [CLEMASTINE FUMARATE] | DILI negative (test set)
Cl.Nc1ccc(/N=N/c2ccccc2)c(N)n1 [PHENAZOPYRIDINE HYDROCHLORIDE] | DILI positive (training set)
COc1cc(NS(C)(=O)=O)ccc1Nc1c2ccccc2nc2ccccc12.Cl [AMSACRINE HYDROCHLORIDE] | DILI positive (training set)
CC(C)NCC(O)COc1cccc2[nH]ccc12 (centres undefined) [PINDOLOL] | DILI negative (training set)
CCOc1ccc(NC(C)=O)cc1 [PHENACETIN] | DILI positive (training set)
C[C@]12CC[C@@H]3c4ccc(O)cc4CC[C@H]3[C@@H]1CC[C@@H]2O [ESTRADIOL] | DILI negative (training set)
Cl.Cl.O=C1c2c(O)ccc(O)c2C(=O)c2c(NCCNCCO)ccc(NCCNCCO)c21 [MITOXANTRONE HYDROCHLORIDE] | DILI positive (training set)
O=C1CN(/N=C/c2ccc(-c3ccc([N+](=O)[O-])cc3)o2)C(=O)[N-]1.[Na+] [DANTROLENE SODIUM] | DILI positive (training set)
CN(C)CCC(c1ccc(Cl)cc1)c1ccccn1.O=C(O)/C=C\C(=O)O (centres undefined) [CHLORPHENIRAMINE MALEATE] | DILI positive (training set)
CC1=CC(=O)c2ccccc2C1=O [MENADIONE] | DILI positive (test set)
CCc1c(C)[nH]c2c1C(=O)C(CN1CCOCC1)CC2.Cl (centres undefined) [MOLINDONE HYDROCHLORIDE] | DILI positive (training set)
CCSCC[C@H](N)C(=O)O [ETHIONINE] | DILI positive (training set)
S=C=Nc1cccc2ccccc12 [1-NAPHTHYLISOTHIOCYANATE] | DILI positive (test set)
C=C1[C@@H]2CCC3[C@@](CC[C@@H]4[C@H](C(=O)O)C[C@@H](O[C@@H]5O[C@H](CO)[C@@H](OS(=O)(=O)[O-])[C@H](OS(=O)(=O)[O-])[C@H]5OC(=O)CC(C)C)C[C@@]34C)(C2)[C@@H]1O.[K+].[K+] (some centres undefined) [ATRACTYLOSIDE] | DILI positive (training set)
CADMIUM DICHLORIDE | DILI positive (training set)

Compound | Hepatotoxicity
NC(=O)N1c2ccccc2C=Cc2ccccc21 [CARBAMAZEPINE] | DILI positive (test set)
CC[C@@H](CO)NC(=O)[C@@H]1C=C2c3cccc4c3c(cn4C)C[C@H]2N(C)C1.O=C(O)/C=C\C(=O)O [METHYSERGIDE MALEATE] | DILI negative (training set)
NC[C@@H]1O[C@H](O[C@H]2[C@@H](O)[C@H](O[C@@H]3[C@@H](O)[C@H](N)C[C@H](N)[C@H]3O[C@H]3O[C@H](CO)[C@@H](O)[C@H](O)[C@H]3N)O[C@@H]2CO)[C@H](N)[C@@H](O)[C@@H]1O.O=S(=O)(O)O [PAROMOMYCIN SULFATE] | DILI negative (training set)
CCN(CC)C(=O)N1CCN(C)CC1 [DIETHYLCARBAMAZINE] | DILI positive (training set)
CO[C@H]1C[C@H](O[C@H]2[C@H](C)[C@@H](O[C@@H]3O[C@H](C)C[C@H](N(C)C)[C@H]3OC(C)=O)[C@@H](C)C[C@@]3(CO3)C(=O)[C@H](C)[C@@H](OC(C)=O)[C@@H](C)[C@@H](C)OC(=O)[C@@H]2C)O[C@@H](C)[C@@H]1OC(C)=O [TROLEANDOMYCIN] | DILI positive (test set)
Cc1ccc(C(=O)c2ccc(CC(=O)O)n2C)cc1 [TOLMETIN] | DILI positive (training set)
COCC(=O)O[C@]1(CCN(C)CCCc2nc3ccccc3[nH]2)CCc2cc(F)ccc2[C@@H]1C(C)C [MIBEFRADIL] | DILI negative (test set)
O=C(O)COc1ccc(C(=O)c2cccs2)c(Cl)c1Cl | DILI positive (test set)
O=[As][As+](=O)[O-] (centres undefined) [ARSENIC TRIOXIDE] | DILI positive (test set)
Nc1c(CC(=O)O)cccc1C(=O)c1ccc(Br)cc1 [BROMFENAC] | DILI positive (test set)
C=C1CC[C@@]2(O)[C@H]3Cc4ccc(O)c5c4[C@@]2(CCN3CC2CC2)[C@H]1O5 | DILI negative (training set)
CC(O)(CS(=O)(=O)c1ccc(F)cc1)C(=O)Nc1ccc(C#N)c(C(F)(F)F)c1 (centres undefined) [BICALUTAMIDE] | DILI positive (training set)
CC(C)(O)c1ccccc1CC[C@@H](SCC1(CC(=O)O)CC1)c1cccc(/C=C/c2ccc3ccc(Cl)cc3n2)c1 [MONTELUKAST] | DILI negative (training set)
CN1CCC(=C2c3ccccc3CCc3cccnc32)CC1.O=C(O)/C=C\C(=O)O.O=C(O)/C=C\C(=O)O [AZATADINE MALEATE] | DILI positive (test set)
CCCC(C)(COC(N)=O)COC(N)=O [MEPROBAMATE] | DILI positive (test set)
CN(C)CCN(Cc1cccs1)c1ccccn1 | DILI positive (test set)
C=CCO [ALLYL ALCOHOL] | DILI positive (test set)
Cc1nnc(NS(=O)(=O)c2ccc(N)cc2)s1 [SULFAMETHIZOLE] | DILI positive (test set)
CO[C@@]1(NC(=O)Cc2cccs2)C(=O)N2C(C(=O)O)=C(COC(N)=O)CS[C@@H]21 [CEFOXITIN] | DILI positive (test set)
COC(=O)C1=C(C)NC(C)=C(C(=O)OCCN(C)Cc2ccccc2)C1c1cccc([N+](=O)[O-])c1.Cl (centres undefined) [NICARDIPINE HYDROCHLORIDE] | DILI positive (training set)
CNCCc1ccccn1.Cl.Cl [BETAHISTINE HYDROCHLORIDE] | DILI positive (training set)

Compound | Hepatotoxicity
CC1(C)[C@@H](OC(=O)CCC(=O)[O-])CC[C@]2(C)[C@H]3C(=O)C=C4[C@@H]5C[C@@](C)(C(=O)[O-])CC[C@]5(C)CC[C@@]4(C)[C@]3(C)CC[C@@H]12.[Na+].[Na+] [CARBENOXOLONE SODIUM] | DILI negative (training set)
O=C(O)P(=O)(O)O [FOSCARNET] | DILI negative (test set)
COc1ccc(OC)c(C(O)C(C)N)c1.Cl (centres undefined) [METHOXAMINE HYDROCHLORIDE] | DILI negative (training set)
CN(C)CCCC1(c2ccc(F)cc2)OCc2cc(C#N)ccc21 (centres undefined) [CITALOPRAM] | DILI negative (training set)
Cl.N [AMMONIUM CHLORIDE] | DILI negative (training set)
O=C1NC(=O)C(O)(O)C(=O)N1 | DILI negative (training set)
CC(N/C(=N\C#N)Nc1ccncc1)C(C)(C)C (centres undefined) [PINACIDIL ANHYDROUS] | DILI negative (training set)
CC(=O)[C@]1(O)Cc2c(O)c3c(c(O)c2[C@@H](O[C@H]2C[C@H](N)[C@H](O)[C@H](C)O2)C1)C(=O)c1ccccc1C3=O.Cl [IDARUBICIN HYDROCHLORIDE] | DILI negative (training set)
CC1=C(C(=O)O)N2C(=O)[C@@H](NC(=O)[C@H](N)C3=CCC=CC3)[C@H]2SC1 [CEPHRADINE] | DILI negative (test set)
CC(C)(O/N=C(\C(=O)N[C@@H]1C(=O)N2C(C(=O)[O-])=C(C[n+]3ccccc3)CS[C@H]12)c1csc(N)n1)C(=O)O [CEFTAZIDIME] | DILI negative (test set)
BISMUTH SUBSALICYLATE | DILI negative (test set)
Cl.O=C(O)CCCCCCNC1c2ccccc2CCc2ccccc21 [AMINEPTINE HYDROCHLORIDE] | DILI positive (test set)
ClCCCl [1,2-DICHLOROETHANE] | DILI positive (test set)
CC(C)(Oc1ccc(CCNC(=O)c2ccc(Cl)cc2)cc1)C(=O)O [BEZAFIBRATE] | DILI negative (training set)
CCc1nc(N)nc(N)c1-c1ccc(Cl)cc1 [PYRIMETHAMINE] | DILI positive (training set)
O=C1CC[C@@]2(O)[C@H]3Cc4ccc(O)c5c4[C@@]2(CCN3CC2CC2)[C@H]1O5 [NALTREXONE] | DILI positive (training set)
N[C@H](C(=O)O)[C@@H]1CC(Cl)=NO1 [ACIVICIN] | DILI negative (training set)
CCOc1ccc2ccccc2c1C(=O)N[C@@H]1C(=O)N2[C@@H]1SC(C)(C)[C@@H]2C(=O)[O-].O.[Na+] [NAFCILLIN SODIUM] | DILI negative (test set)
CCn1cc(C(=O)O)c(=O)c2ccc(C)nc21 [NALIDIXIC ACID] | DILI positive (training set)
CNCC[C@@H](Oc1ccccc1C)c1ccccc1 [ATOMOXETINE] | DILI positive (test set)
C[C@@H]1C[C@H]2[C@@H]3CCC4=CC(=O)C=C[C@]4(C)[C@@]3(F)[C@@H](O)C[C@]2(C)[C@@]1(O)C(=O)CO [DEXAMETHASONE] | DILI negative (training set)

Same assay, conditions: Liver

Compound | Hepatotoxicity
Nc1c2c(nc3ccccc13)CCCC2 [TACRINE] | DILI negative (training set)
Cc1ncc(CO)c(CO)c1O [PYRIDOXINE] | DILI negative (training set)
N#CC(C#N)=NNc1ccc(OC(F)(F)F)cc1 | DILI positive (training set)
O=C1NC(=O)C(c2ccccc2)(c2ccccc2)N1 [PHENYTOIN] | DILI positive (training set)
O=C(OCC(O)CO)c1ccccc1Nc1ccnc2cc(Cl)ccc12 (centres undefined) [GLAFENINE] | DILI positive (training set)
[H]/N=C(/N)N[C@H]1[C@H](O)[C@@H](O)[C@H](O[C@@H]2O[C@@H](C)[C@](O)(C=O)[C@H]2O[C@@H]2O[C@@H](CO)[C@H](O)[C@@H](O)[C@@H]2NC)[C@@H](N/C(N)=N\[H])[C@@H]1O [STREPTOMYCIN] | DILI negative (test set)
